Assays:
[1] = system: fasting glycemia (blood-glucose concentration); experiment: threshold dose of blood-sugar-lowering activity in fasting guinea pigs; format: in vivo; details: Cavia porcellus, ip; guinea pig, i.p., potassium salt, pH 7.4; significant lowering of fasting glycemia (p<0.05), N=4 per dose group
Description: (§1) To establish the pharmacological properties of the compounds in accordance with the invention, blood-sugar-lowering activity and resorption inhibition were determined in separate tests and compared with two structurally related compounds.
Fasting guinea pigs were used as experimental model to determine the threshold dose of the blood-lowering activity of the substances to be investigated. Food was withheld from the individual animals used in the investigation for 16 hours prior to the start of the tests. The animals were kept unfed throughout the testing period but had free access to drinking water.
The substances were administered through intraperitoneal injection of a solution of the potassium salt at pH 7.4.
A control group carried along in parallel was given an 0.9% NaCl solution.
The drawing of blood for determination of the glucose concentrations was effected immediately prior to administration of the substances and at one-hour intervals up to the fourth hour after the administration of the substances. To this end, an ear vein was carefully punctured with a No. 18 cannula, and the drops of blood issuing were picked up with a 10 μl capillary.
The blood-glucose concentration was determined in the hemolysate by the specific hexokinase method. To this end, the 10 μl blood sample was pipetted into a stabilizer solution containing digitonin as hemolysis accelerator and maleinimide as glycolysis inhibitor. Following this, an aliquot was taken from the hemolysate so obtained and determined by the hexokinase method on an LKB 8600 (made by LKB, Bromma, Sweden).
The dose which with the specified number of test animals per dose group (N=4) was just large enough to produce a significant lowering of fasting glycemia (p<0.05) was adopted as threshold dose.

glucose resorption = experiment: resorption-inhibiting activity (oral glucose loading) in fasting guinea pigs; format: in vivo; details: Cavia porcellus, PIG1, ip, guinea pig, 1 g glucose p.o., AUC difference vs control; for inhibition in vivo at 10 mg/kg: dose 10 mg/kg i.p.; for inhibition in vivo at 40 mg/kg: dose 40 mg/kg i.p.; for inhibition in vivo at 20 mg/kg: dose 20 mg/kg i.p.
Description: as §1
To determine the effect on glucose resorption, oral glucose loading was effected. To this end, the substance to be tested was administered intraperitoneally as potassium salt, as described, to a group of ten fasting guinea pigs. At the same time, 1 g glucose was orally administered to the animals as a 20% solution by means of an esophageal bougie.
After a preliminary value has been established, up to […] blood was taken from the animals at close (20-minute) intervals for determination of the glucose concentrations, as described.
A control group carried along in parallel also was given 1 g glucose p.o., and intraperitoneally a corresponding amount of 0.9% NaCl solution.
The blood-glucose concentration was determined in the hemolysate by the hexokinase method, as described.
With regard to glucose resorption, the area under the concentration/time curve, calculated by means of the empirical trapeze formula, served as quantity to be measured. The difference in the area between the control and test groups, expressed in percent, was used as a measure for the inhibition of glucose resorption.

| SMILES | minimal effective dose [1] | inhibition in vivo at 10 mg/kg (glucose resorption) | inhibition in vivo at 15 mg/kg (glucose resorption; dose 15 mg/kg i.p.) | inhibition in vivo at 40 mg/kg (glucose resorption) | inhibition in vivo at 20 mg/kg (glucose resorption) |
| --- | --- | --- | --- | --- | --- |
| CC(=NNCCc1ccccc1)C(=O)O [A, 2-(phenethylhydrazono)-propionic acid, reference compound] | 10 to 15 mg/kg | 0% | – | – | – |
| CC(=NNCCC1CCCCC1)C(=O)O [B, 2-(2-cyclohexylethylhydrazono)-propionic acid, reference compound] | 15 mg/kg | – | 0% | – | – |
| CC(=NNCCOc1ccc(C)cc1)C(=O)O [Example 1, 2-(2-p-Tolyloxyethylhydrazono)-propionic acid] | 25 mg/kg | – | – | 25% | – |
| CC(=NNCCOc1ccccc1)C(=O)O [Example 1b, 2-(2-phenoxyethylhydrazono)-propionic acid] | 25 mg/kg | – | – | 98% | – |
| COCCOCCNN=C(C)C(=O)[O-].[Na+] [Example 2a, sodium 2-[2-(2-methoxyethoxy)-ethylhydrazono]-propionate] | > 50 mg/kg | – | – | 37% | – |
| CC(=NNCCOCc1ccccc1)C(=O)[O-].[Na+] [Example 2b, sodium 2-(2-benzyloxyethylhydrazono)-propionate] | > 50 mg/kg | – | – | 49.9% | – |
| C=CCSCCNN=C(C)C(=O)[O-].[Na+] [Example 2c, sodium 2-(2-allylthioethylhydrazono)-propionate] | 10 to 25 mg/kg | 16% | – | – | – |
| CC(=NNCCSc1ccccc1)C(=O)[O-].[Na+] [Example 2d, sodium 2-(2-phenylthioethylhydrazono)-propionate] | 25 to 50 mg/kg | – | – | 33% | – |
| C=CCOCCNN=C(C)C(=O)O [Example 3, 2-(2-Allyloxyethylhydrazono)-propionic acid] | 25 mg/kg | – | – | – | 9% |
| COCCCCCCNN=C(C)C(=O)O [Example 3a, 2-(6-methoxyhexylhydrazono)-propionic acid] | 20 mg/kg | – | – | – | 11% |
| CCOCCCCCNN=C(C)C(=O)O [Example 3b, 2-(5-ethoxypentylhydrazono)-propionic acid] | 20 to 25 mg/kg | – | – | – | 34% |
| CC(=NNCCOCCC1CCCCC1)C(=O)O [Example 3d, 2-[2-(2-cyclohexylethoxy)-ethylhydrazono]-propionic acid] | > 50 mg/kg | – | – | 15% | – |
| CC(=NNCCCOCc1ccccc1)C(=O)O [Example 3e, 2-(3-benzyloxypropylhydrazono)-propionic acid] | > 50 mg/kg | – | – | 44% | – |
| COCCSCCNN=C(C)C(=O)O [Example 3f, 2-[2-(2-methoxyethylthio)-ethylhydrazono]-propionic acid] | 25 mg/kg | – | – | – | 17.3% |

Source: patent publication US4387104A, “N-Substituted pyruvic acid hydrazones, preparation thereof and pharmaceutical compositions containing them” (Boehringer Mannheim GmbH, priority 1980, dated 1983)
